Patent US7960376B2, “Benzo-fused heterocycles” (priority 2007, dated 2011)

Experiments:
Format in all cases: cell-based
[1] = molecular target: human CB2 receptor (hCB2) (Homo sapiens, UniProt P34972); assay: cell-based; settings: intracellular cAMP, CHO-K1 cells, NKH-477 prestimulated, + agonist, − inverse agonist
[2] = molecular target: T1, rat CB2 receptor (rCB2) (Rattus norvegicus, UniProt Q9QZN9); assay: cell-based; settings: intracellular cAMP, CHO-K1 cells, NKH-477 prestimulated, + agonist, − inverse agonist
T1 sequence (Q9QZN9 1-360): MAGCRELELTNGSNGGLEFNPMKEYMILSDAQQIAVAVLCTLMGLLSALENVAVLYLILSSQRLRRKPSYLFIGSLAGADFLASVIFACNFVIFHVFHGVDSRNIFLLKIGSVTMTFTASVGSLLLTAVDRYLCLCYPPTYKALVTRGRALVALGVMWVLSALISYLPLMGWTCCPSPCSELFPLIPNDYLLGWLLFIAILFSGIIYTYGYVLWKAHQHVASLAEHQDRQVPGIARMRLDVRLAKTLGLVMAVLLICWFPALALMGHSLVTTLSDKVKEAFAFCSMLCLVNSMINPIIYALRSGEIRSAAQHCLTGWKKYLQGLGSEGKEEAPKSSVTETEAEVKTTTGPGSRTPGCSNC

[3] = molecular target: human CB1 receptor (hCB1) (Homo sapiens, UniProt P21554); assay: cAMP assay (LANCE TR-FRET) in CHO-K1 cells expressing hCB1; settings: intracellular cAMP, NKH-477 prestimulated, + agonist, − inverse agonist
Chain of human CB1 receptor (hCB1) (P21554 whole entry): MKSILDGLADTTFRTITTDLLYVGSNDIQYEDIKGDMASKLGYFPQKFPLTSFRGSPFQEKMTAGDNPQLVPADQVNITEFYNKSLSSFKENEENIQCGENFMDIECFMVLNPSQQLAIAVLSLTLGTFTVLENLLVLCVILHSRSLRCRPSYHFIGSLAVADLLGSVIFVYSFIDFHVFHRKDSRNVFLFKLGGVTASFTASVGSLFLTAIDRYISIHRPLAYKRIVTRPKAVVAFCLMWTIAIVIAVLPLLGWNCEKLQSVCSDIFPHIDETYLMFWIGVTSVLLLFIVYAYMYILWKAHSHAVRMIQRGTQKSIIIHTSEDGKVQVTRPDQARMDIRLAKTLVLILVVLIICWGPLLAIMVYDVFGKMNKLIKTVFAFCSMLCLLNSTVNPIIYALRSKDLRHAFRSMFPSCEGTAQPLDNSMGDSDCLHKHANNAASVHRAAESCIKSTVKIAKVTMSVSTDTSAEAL

Chain of human CB2 receptor (hCB2) (P34972 whole entry): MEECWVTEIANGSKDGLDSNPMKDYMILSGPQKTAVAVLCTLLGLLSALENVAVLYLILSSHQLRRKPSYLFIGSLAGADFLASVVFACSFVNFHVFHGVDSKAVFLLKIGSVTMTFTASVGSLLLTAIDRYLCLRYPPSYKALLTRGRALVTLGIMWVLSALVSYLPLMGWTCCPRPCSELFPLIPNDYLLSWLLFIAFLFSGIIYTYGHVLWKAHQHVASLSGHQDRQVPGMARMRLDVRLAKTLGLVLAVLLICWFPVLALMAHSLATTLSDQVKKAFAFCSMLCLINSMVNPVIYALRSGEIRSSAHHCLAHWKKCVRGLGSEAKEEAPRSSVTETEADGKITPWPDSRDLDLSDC

Row | EC50 ([1]; read-out: hCB2 EC50 range) [µM] | EC50 ([2]; read-out: rCB2 EC50 range) [µM] | EC50 ([3]; read-out: hCB1 EC50 range) [µM] | Structure (SMILES) | hCB2 EC50 range [1] | rCB2 EC50 range [2] | hCB1 EC50 range [3]
1 | – | – | – | O=C(NC1CCCC1)c1ccc2c(c1)N(C(=O)c1ccccc1)CCS2 [Example 14, 4-benzoyl-N-cyclopentyl-3,4-dihydro-2H-benzo[b][1,4]thiazine-6-carboxamide] | −E | −D | −E
2 | – | – | – | O=C(NC12CC3CC(CC(C3)C1)C2)c1ccc2c(c1)N(C(=O)c1ccccc1)CCS2 [Example 21, 4-benzoyl-N-(1-adamantyl)-3,4-dihydro-2H-benzo[b][1,4]thiazine-6-carboxamide] | −E | −D | −E
3 | – | – | – | O=C(NC12CC3CC(CC(C3)C1)C2)c1ccc2c(c1)N(C(=O)c1ccc(F)cc1)CCS2 [Example 22] | −E | −D | −E
4 | – | – | – | Cc1ccc(C(=O)N2CCSc3ccc(C(=O)NC45CC6CC(CC(C6)C4)C5)cc32)cc1 [Example 23, N-(1-adamantyl)-4-(4-methylbenzoyl)-3,4-dihydro-2H-benzo[b][1,4]thiazine-6-carboxamide] | −E | −D | −E
5 | – | – | – | O=C(NC12CC3CC(CC(C3)C1)C2)c1ccc2c(c1)N(C(=O)c1ccc(Cl)cc1)CCS2 [Example 24, N-(1-adamantyl)-4-(4-chlorobenzoyl)-3,4-dihydro-2H-benzo[b][1,4]thiazine-6-carboxamide] | −E | −D | −E
6 | – | – | – | COc1ccc(C(=O)N2CCSc3ccc(C(=O)NC45CC6CC(CC(C6)C4)C5)cc32)cc1 [Example 25, N-(1-adamantyl)-4-(4-methoxybenzoyl)-3,4-dihydro-2H-benzo[b][1,4]thiazine-6-carboxamide] | −E | −D | −E
7 | – | – | – | CC(C)C(=O)N1CCSc2ccc(C(=O)NC34CC5CC(CC(C5)C3)C4)cc21 [Example 40, N-(1-adamantyl)-4-isobutyryl-3,4-dihydro-2H-benzo[b][1,4]thiazine-6-carboxamide] | +D | −D | −E
8 | – | – | – | O=C(c1ccc2c(c1)N(S(=O)(=O)c1ccc(F)cc1)CCS2)N1CCOCC1 [Example 42, (4-(4-fluorophenylsulfonyl)-3,4-dihydro-2H-benzo[b][1,4]thiazin-6-yl)(morpholino)methanone] | +D | +C | +E
9 | – | – | – | CC(C)CNC(=O)c1ccc2c(c1)N(S(=O)(=O)c1ccc(F)cc1)CCS2 [Example 43, 4-(4-fluorophenylsulfonyl)-N-isobutyl-3,4-dihydro-2H-benzo[b][1,4]thiazine-6-carboxamide] | +B | +A | +D
10 | – | – | – | CC(C)(C)NC(=O)c1ccc2c(c1)N(S(=O)(=O)c1ccc(F)cc1)CCS2 [Example 47, N-tert-butyl-4-(4-fluorophenylsulfonyl)-3,4-dihydro-2H-benzo[b][1,4]thiazine-6-carboxamide] | +B | +A | +E
11 | – | – | – | COCCCNC(=O)c1ccc2c(c1)N(S(=O)(=O)c1ccc(F)cc1)CCS2 [Example 49, 4-(4-fluorophenylsulfonyl)-N-(3-methoxypropyl)-3,4-dihydro-2H-benzo[b][1,4]thiazine-6-carboxamide] | +C | +A | +E
12 | – | – | – | CC(C)CNC(=O)c1ccc2c(c1)N(S(=O)(=O)c1ccc(Cl)cc1)CCO2 [Example 58, 4-(4-chlorophenylsulfonyl)-N-isobutyl-3,4-dihydro-2H-benzo[b][1,4]oxazine-6-carboxamide] | +B | +A | +D
13 | – | – | – | CC(C)CNC(=O)c1ccc2c(c1)N(S(=O)(=O)c1ccc(F)cc1)CCO2 [Example 60, 4-(4-fluorophenylsulfonyl)-N-isobutyl-3,4-dihydro-2H-benzo[b][1,4] oxazine-6-carboxamide] | +B | +B | +D
14 | – | – | – | O=C(NC1CCCC1)c1ccc2c(c1)N(S(=O)(=O)c1ccccc1)CCO2 [Example 61, N-cyclopentyl-4-(phenylsulfonyl)-3,4-dihydro-2H-benzo[b][1,4]oxazine-6-carboxamide] | +C | +C | +E
15 | – | – | – | O=C(NC1CCCC1)c1ccc2c(c1)N(S(=O)(=O)c1ccc(F)cc1)CCO2 [Example 62, N-cyclopentyl-4-(4-fluorophenylsulfonyl)-3,4-dihydro-2H-benzo[b][1,4]oxazine-6-carboxamide] | +B | +A | +D
16 | – | – | – | O=C(NC1CCCC1)c1ccc2c(c1)N(S(=O)(=O)c1ccc(Cl)cc1)CCO2 [Example 63, 4-(4-chlorophenylsulfonyl)-N-cyclopentyl-3,4-dihydro-2H-benzo[b][1,4]oxazine-6-carboxamide] | +B | +A | +D
17 | – | – | – | O=C(c1ccc2c(c1)N(S(=O)(=O)c1ccc(F)cc1)CCS2)N1CCCC1 [Example 71] | +C | +C | +E
18 | – | – | – | CCN(CC)C(=O)c1ccc2c(c1)N(S(=O)(=O)c1ccc(C(F)(F)F)cc1)CCS2 [Example 73, N,N-diethyl-4-(4-(trifluoromethyl)phenylsulfonyl)-3,4-dihydro-2H-benzo[b][1,4]thiazine-6-carboxamide] | +C | +C | +E
19 | – | – | – | O=C(c1ccc2c(c1)N(S(=O)(=O)c1ccc(F)cc1)CCS2)N1CCCCC1 [Example 77] | +C | +C | +E
20 | – | – | – | CC(C)(C)c1noc(-c2ccc3c(c2)N(S(=O)(=O)c2ccc(C(F)(F)F)cc2)CCS3)n1 [Example 82, 3-tert-butyl-5-(4-(4-(trifluoromethyl)phenylsulfonyl)-3,4-dihydro-2H-benzo[b][1,4]thiazin-6-yl)-1,2,4-oxadiazole] | +B | +B | +D
21 | – | – | – | O=S(=O)(c1ccc(F)cc1)N1CCSc2ccc(-c3nc(-c4ccccn4)no3)cc21 [Example 83, 5-(4-(4-fluorophenylsulfonyl)-3,4-dihydro-2H-benzo[b][1,4]thiazin-6-yl)-3-(pyridin-2-yl)-1,2,4-oxadiazole] | +C | +B | +D
22 | – | – | – | CC(C)(C)c1noc(-c2ccc3c(c2)N(S(=O)(=O)c2ccccc2)CCS3)n1 [Example 84] | +C | +A | +E
23 | – | – | – | CC(C)(C)c1noc(-c2ccc3c(c2)N(S(=O)(=O)c2ccc(F)cc2)CCS3)n1 [Example 85, 3-tert-butyl-5-(4-(4-fluorophenylsulfonyl)-3,4-dihydro-2H-benzo[b][1,4]thiazin-6-yl)-1,2,4-oxadiazole] | +B | +B | +D
24 | > 10 | > 10 | > 10 | O=S(=O)(c1ccccc1)N1CCSc2ccc(-c3nc(-c4ccccn4)no3)cc21 [Example 87, 5-(4-(phenylsulfonyl)-3,4-dihydro-2H-benzo[b][1,4]thiazin-6-yl)-3-(pyridin-2-yl)-1,2,4-oxadiazole] | – | – | –
25 | – | – | – | CCc1noc(-c2ccc3c(c2)N(S(=O)(=O)c2ccc(C(F)(F)F)cc2)CCS3)n1 [Example 89, 3-ethyl-5-(4-(4-(trifluoromethyl)phenylsulfonyl)-3,4-dihydro-2H-benzo[b][1,4]thiazin-6-yl)-1,2,4-oxadiazole] | +B | +A | +D
26 | – | – | – | CCc1noc(-c2ccc3c(c2)N(S(=O)(=O)c2ccc(F)cc2)CCS3)n1 [Example 90, 3-ethyl-5-(4-(4-fluorophenylsulfonyl)-3,4-dihydro-2H-benzo[b][1,4]thiazin-6-yl)-1,2,4-oxadiazole] | +B | +A | +D
27 | – | – | – | CC(C)(C)NC(=O)c1ccc2c(c1)N(S(=O)(=O)c1ccccc1)CCC(C)(C)S2 [Example 91, N-tert-butyl-2,2-dimethyl-5-(phenylsulfonyl)-2,3,4,5-tetrahydrobenzo[b][1,4]thiazepine-7-carboxamide] | +D | +B | −E
28 | – | – | – | C[C@H](NC(=O)c1ccc2c(c1)N(S(=O)(=O)c1ccccc1)CCC(C)(C)S2)C(C)(C)C [Example 98, (S)-N-(3,3-dimethyl-butan-2-yl)-2,2-dimethyl-5-(phenyl-sulfonyl)-2,3,4,5-tetrahydrobenzo[b][1,4] thiazepine-7-carboxamide] | +D | −E | −D
29 | – | – | – | CC1(C)CCN(S(=O)(=O)c2ccc(F)cc2)c2cc(C(=O)N3CCOCC3)ccc2S1 [Example 100, (5-(4-fluorophenyl-sulfonyl)-2,2-dimethyl-2,3,4,5-tetrahydro-benzo[b][1,4]thiazepin-7-yl) (morpholino)-methanone] | +E | +C | −E
